{"source": "paper PMC2744931", "about": "“Glutamate Uptake Triggers Transporter-Mediated GABA Release from Astrocytes” (PLoS ONE, 2009)", "key": {"rat hippocampus": {"system": "rat hippocampus", "experiment": "In vivo microdialysis and HPLC amino acid detection in the hippocampus", "experimental": "Male Wistar rats (300–400 g) were anaesthetized with halothane (1% in air) and microdialysis probes were implanted into the ventral hippocampus (A: −5.0, L: 5.0, V: −8.0) as described previously. To minimize tissue damage, the final position of the probes was reached slowly, in not less than 20 min. Perfusion of artificial cerebrospinal fluid, containing 144 mM NaCl, 3 mM KCl, 1 mM MgCl2, 2 mM CaCl2 (pH 7.4), was performed at a rate of 1 µl/min. The dialysate samples during 20 min were stored at −20°C. To establish the background amino acid concentration, each experiment started with the collection of three control samples with <10% variation. NNC-711 was applied bilaterally for 60 min followed by the simultaneous application of t-PDC and NNC-711 for 60 min. Concentration of amino acids was measured by pre-column derivatization of primary amino acids with orthophthalaldehyde (OPA, Sigma). Derivatization was performed at pH 10.4 in the presence of mercaptoethanol. OPA-derivatized amino acids were detected with fluorescence detector excitation wavelength 340 nm and emission wavelength 440 nm. Because of the instability of OPA derivatives, the HPLC technique was automated on an HP 1100 series system. Amino acids were separated on HP Hypersyl ODS reversed-phase columns (200×2.1 mm) filled with 5 µm C-18 spherical packing material. Eluent A was 0.1 M phosphate buffer containing 0.5% (vol/vol) tetrahydrofuran (Merck), pH 5.6, while eluent B contained 70% acetonitrile (Merck) in eluent A, pH 5.6. The gradient profile was: 12% B at 0 min, 23% B at 9 min, 36% B at 18 min, 100% B at 20 min, 100% B at 25 min and 12% B at 30 min. The column equilibration time was 8 min. External standards of 10 µM amino acids were injected after every 20 samples. Chromatograms were evaluated with HP Chem-Station software. Concentration of GABA measured in dialysate samples collected during drug applications were related to averaged GABA concentration of control samples collected for an hour prior to drug application and were given as percent changes."}, "[1]": {"system": "GABA transport in rat cerebrocortical NPMV (GAT-2/3)", "experiment": "[3H]GABA uptake in rat cerebrocortical native plasma membrane vesicles (NPMV) in the presence of 100 µM NNC-711", "format": "biochemical", "experimental": "(§1) Cerebral cortices of 4–6 weeks old male Wistar rats (Toxicoop, Hungary) and frozen human brain tissue samples (Hungarian Brain Tissue Bank, Budapest) were used to prepare NPMV fractions, that contain numerous membrane vesicles of different sizes and shapes, a few intact synaptosomes and free mitochondria. […] Afterward, preincubated solution was incubated with [^3H]GABA (10 nM, Amersham) and GABA (90 nM, Sigma) for 1 min. In case of [^3H]β-alanine uptake, incubation solution contained 100 nM [^3H]β-alanine (Amersham) and 900 nM β-alanine (Sigma). After the incubation, samples were immediately filtered through glass fiber filters and washed twice with ice-cold HEPES buffer. The [^3H]GABA level inside the plasma membrane vesicles was determined by liquid scintillation method. Although this method is generally used to measure GABA uptake, we applied it to follow GABA release due to the simplicity and reliability of the assay. We also determined GABA release by preloading [^3H]GABA into NPMV vesicles and measuring the [^3H]GABA level in the intracellular and extracellular milieu. […] Non-specific uptake was determined in the presence of 1 mM guvacine. The radioactivity of samples was counted in HiSafe 3 (Perkin Elmer) scintillation mixture."}, "human NPMVs": {"system": "human NPMVs", "experiment": "[3H]GABA uptake in human brain tissue NPMVs", "format": "biochemical", "conditions": "100 µM NNC-711; hippocampus, cortical gray and white matter, spinal cord white matter, choroid plexus, corpus callosum", "experimental": "as §1"}, "hippocampus": {"system": "hippocampus", "conditions": "cited from earlier work"}, "rat cerebrocortical NPMV": {"system": "rat cerebrocortical NPMV", "experiment": "Total extracellular GABA by HPLC in rat cerebrocortical NPMV samples", "format": "biochemical", "conditions": "300 µM Glu, n = 3"}, "[2]": {"system": "acute rat hippocampal slices", "experiment": "[3H]GABA efflux from acute rat hippocampal slices (microvolume superfusion)", "format": "cell-based", "experimental": "Radiolabeling of 400 µm thick acute slices was conducted in 200 µl of ACSF in a glass tube. […] To preferentially label the cytosolic over the vesicular pools, incubation of slices at 30°C lasted for 10 min [54]. Slices were washed with fresh ACSF containing GABA-T inhibitors, thereafter placed in a custom-built closed micro-volume (50 µl) chamber secured in a water bath thermostated at 30°C [55]. […] The superfusate was collected in 0.5 ml fractions. After washing for 10 min, 10 fractions were collected to define the basal release of radioactivity (‘pre-stimulus’). At this point, the hippocampal slice was exposed to 100 µM Glu for a period of 10 min (‘drug application’), followed by further 10 min of washing with ACSF (‘washout’). Radioactivity of each 0.5 ml fraction counted in 3 ml HiSafe 3 scintillation mixture was expressed as the percentage of the actual radioactivity content of the slice (fractional release). Fractional release data from individual slices were normalized to a first order exponential curve (obtained by fitting the pre-stimulus and the last 3 washout values). Normalized percent efflux data from fractions of ‘pre-stimulus’ (1–10 min) versus ‘drug application’ (11–20 min) periods were averaged and compared by statistical analysis."}, "GAT-2/3": {"system": "GAT-2/3", "experiment": "[3H]β-alanine uptake in rat cerebrocortical NPMV fraction", "format": "biochemical", "conditions": "n = 3", "experimental": "as §1"}, "rat cortex NPMVs": {"system": "rat cortex NPMVs", "experiment": "[3H]GABA release from NPMV vesicles preloaded with [3H]GABA", "format": "biochemical", "conditions": "10 min incubation with Glu, n = 3", "experimental": "as §1"}, "Glu decarboxylase (GAD)": {"system": "Glu decarboxylase (GAD)", "experiment": "NMR (13C-HSQC) of [13C]GABA formation from [13C]Glu in rat cortical NPMV fraction", "format": "biochemical", "experimental": "NPMV samples for NMR experiments were prepared as described before. NPMV fractions from the whole cortex were homogenized in 1 ml HEPES buffer containing 300 µM [^13C]Glu and were incubated at 30°C for 30 min. The homogenate was then centrifuged at 3500 g for 15 min. The supernatant (extracellular fraction) was stored and the pellet (intracellular fraction) was suspended in 1 ml HEPES buffer and frozen (−80°C) and thawed 3 times. In the NMR experiments on brain slices, 13 hippocampal slices were put in a 2 ml centrifuge tube and the ACSF was replaced with 1 ml ACSF containing 300 µM [^13C]Glu. The slices were incubated at 37°C for 30 min. Afterwards, the samples were frozen (−80°C) and thawed 3 times.\nNMR experiments were carried out at 30°C on a Varian NMR SYSTEM (600 MHz for ^1H) four-channel spectrometer using a 5 mm indirect detection triple resonance (^1H^13C^15N) z-axis gradient probe. Samples (200 µl) were placed into 5 mm Shigemi NMR tubes. Gradient-enhanced ^1H/^13C heteronuclear correlation spectra (^13C-HSQC) were acquired with a ^1H spectral width of 9600 Hz and 2048 complex points, zero-filled to a total of 4096. […] Gaussian and exponential weighting functions were applied in the F2 dimension, while the indirectly detected dimensions were Gaussian weighted only. […]"}, "GAT-3": {"system": "GAT-3", "parameters": "method as in PMID 17408599, PMID 16274841", "conditions": "cited from earlier work"}}, "data": [{"molecule": "O=C(O)[C@@H]1CN[C@@H](C(=O)O)C1", "note": "(relative stereo) [t-PDC, L-trans-pyrrolidine-2,4-dicarboxylate]", "values": [{"measurement": "[Arginine]o in the rat hippocampus in vivo", "setting": "rat hippocampus; control for non-specific release, n = 10", "value": "94±32 % of control"}, {"measurement": "[GABA]o in the rat hippocampus in vivo", "setting": "rat hippocampus; microdialysis application, t-PDC applied together with NNC-711, n = 10", "value": "233±33 % of control"}, {"measurement": "effect on GABA transport in rat cortical NPMV", "setting": "[1]; 10 min preincubation, 100 µM NNC-711 (Figure 1B)", "value": "able to affect GABA transport"}, {"measurement": "inhibition of [3H]GABA uptake in human brain tissue samples", "setting": "human NPMVs", "value": "able to inhibit [^3H]GABA uptake in all investigated areas"}, {"measurement": "neuronal damage after in vivo administration in the hippocampus", "setting": "hippocampus", "value": "did not produce cell death"}, {"measurement": "neuronal damage in vivo", "setting": "hippocampus; very high concentration (25–100 mM)", "value": "did not evoke neuronal damage in vivo"}]}, {"molecule": "N[C@@H](CCC(=O)O)C(=O)O", "note": "[Glu, L-glutamate]", "values": [{"measurement": "increase of the extracellular GABA level (HPLC)", "setting": "rat cerebrocortical NPMV; SCB-treated rats", "value": "35±6", "unit": "%"}, {"measurement": "increase of the extracellular GABA level (HPLC)", "setting": "rat cerebrocortical NPMV; control rats", "value": "46±3", "unit": "%"}, {"measurement": "IC50", "setting": "[1]; 10 min preincubation, 100 µM NNC-711, rat cerebrocortical NPMV, n = 7, read-out: IC50, inhibition of [3H]GABA uptake", "value": "11 ± 0.1", "unit": "µM"}, {"measurement": "inhibition of GABA uptake", "setting": "[1]; preincubation of vesicles with Glu for 10 minutes, in the presence of NNC-711", "value": 52, "unit": "%"}, {"measurement": "elevation of [GABA]o ([3H]GABA efflux)", "setting": "[2]; 100 µM Glu in low-[Ca2+]/high-[Mg2+] buffer, n = 5", "value": "148.3±15.5 % of pre-stimulus control"}, {"measurement": "elevation of [GABA]o ([3H]GABA efflux)", "setting": "[2]; 100 µM Glu in the presence of glutamate receptor antagonists (DL-AP5 50 µM, CNQX 10 µM, (S)-MCPG 500 µM), n = 7", "value": "128.5±13.4 % of pre-stimulus control"}, {"measurement": "elevation of [GABA]o ([3H]GABA efflux)", "setting": "[2]; 100 µM Glu, control conditions, n = 6", "value": "149±14 % of pre-stimulus control"}, {"measurement": "share of average [GABA]o increase remaining", "setting": "[2]; Glu-induced release in the presence of Glu receptor antagonists", "value": 58, "unit": "%"}, {"measurement": "effect on cytosolic β-alanine level ([3H]β-alanine uptake)", "setting": "GAT-2/3", "value": "reduce cytosolic level"}, {"measurement": "inhibition of [3H]GABA uptake in human brain tissue samples", "setting": "human NPMVs", "value": "able to inhibit [^3H]GABA uptake in all investigated areas"}, {"measurement": "IC50", "setting": "rat cortex NPMVs", "value": "13.1 ± 1.6", "unit": "µM"}]}, {"molecule": "NNC(N)=O", "note": "[SCB, semicarbazide]", "values": [{"measurement": "modulation of the effect of Glu on GABA transport / cytosolic GABA level in rat cortical NPMV", "setting": "[1]; 100 µM NNC-711 present", "value": "did not affect [^3H]GABA release"}, {"measurement": "elevation of [GABA]o ([3H]GABA efflux)", "setting": "[2]; Glu-induced release, slices of SCB-treated animals (100 mg/kg i.p., 2 mM present), n = 7", "value": "145±14 % of pre-stimulus control"}, {"measurement": "effect on [13C]GABA formation", "setting": "Glu decarboxylase (GAD); SCB treatment, rat cortical NPMV fraction", "value": "completely blocked"}]}, {"molecule": "[15NH2][13C@@H]([13CH2][13CH2][13C](=O)O)[13C](=O)O", "note": "[[^13C]Glu, [U-^13C/^15N]Glu]", "values": [{"measurement": "share of extracellularly applied [13C]Glu converted to [13C]GABA and released", "setting": "Glu decarboxylase (GAD); 300 µM [13C]Glu, 30 min, rat cortical NPMV", "value": "~5", "unit": "%"}]}, {"molecule": "CN1C(=O)CC(=O)N(c2ccccc2)c2cc(Cl)ccc21", "note": "[clobazam]", "values": [{"measurement": "GAT-3 expression in the hippocampus", "setting": "GAT-3", "value": "up-regulate GAT-3 expression"}]}, {"molecule": "CC[C@@H](C(N)=O)N1CCCC1=O", "note": "[levetiracetam]", "values": [{"measurement": "GAT-3 expression in the hippocampus", "setting": "GAT-3", "value": "up-regulate GAT-3 expression"}]}]}
